# Data taken from ChEMBL document CHEMBL1201862, “PubChem BioAssay data set” (2004).
# Activity calls are given as the source filed them.
# Legend:
# [1] = inhibitors of SNCA 5'UTR-driven reporter translation, confirmation, H4 neuroglioma cells, luminescence (AID 1988); type: functional, cell-based
# H9c2 = experiment: cells; type: functional, cell-based; settings: Rattus norvegicus, H9c2, Myocardium;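 note: confirmatory concentration-response retest of ultra-high-throughput screening hits for modulation of myocardial damage; cell death induced by hydrogen peroxide oxidative stress; compound pretreatment for 60 min then peroxide exposure for 2 h; potency is for protecting the cells against peroxide damage rather than for killing them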
# [2] = inhibitors of firefly luciferase expression or activity, dose response, H4 neuroglioma cells, luminescence (AID 1990); type: functional, cell-based
# [3] = Luminescence Cell-Based Dose Response HTS to Identify Inhibitors of 5'UTR Stem-Loop Driven Prion Protein mRNA Translation in H4 Neuroglioblastoma Cells. [Related pubchem assays: 1827 (Project Summary), 1813 (Primary HTS)]; type: functional
# [4] = growth induction of Burl-1 ts yeast mutant, dose response, counter-screen for SUMOylation pathway inhibitor project, whole organism, S. cerevisiae, luminescence (AID 463199); type: functional
# [5] = target: T1, G-protein coupled receptor 55 (Homo sapiens, UniProt Q9Y2T6); experiment: GPR55 antagonists, SAR follow-up, counter-screen for GPR35 antagonist project, imaging, image-based (AID 2397); type: functional
# T1 sequence (Q9Y2T6 whole entry): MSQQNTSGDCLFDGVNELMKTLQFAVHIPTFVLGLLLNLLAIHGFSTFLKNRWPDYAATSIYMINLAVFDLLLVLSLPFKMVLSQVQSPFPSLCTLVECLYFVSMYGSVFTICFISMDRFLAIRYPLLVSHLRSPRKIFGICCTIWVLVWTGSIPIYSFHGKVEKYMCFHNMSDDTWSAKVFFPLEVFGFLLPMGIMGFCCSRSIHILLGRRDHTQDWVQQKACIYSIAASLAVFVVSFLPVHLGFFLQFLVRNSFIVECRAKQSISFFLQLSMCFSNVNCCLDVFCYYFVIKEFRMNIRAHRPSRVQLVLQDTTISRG
# [6] = target: Tyrosine-protein phosphatase non-receptor type 12 (Homo sapiens, UniProt Q05209); experiment: SAR Selectivity Analysis of small molecule inhibitors of PEST using pCAP in a fluorescence assay. [Related pubchem assays (depositor defined):AID1779, AID1784, AID2135]; type: functional
# Sequence of Tyrosine-protein phosphatase non-receptor type 12 (Q05209 whole entry): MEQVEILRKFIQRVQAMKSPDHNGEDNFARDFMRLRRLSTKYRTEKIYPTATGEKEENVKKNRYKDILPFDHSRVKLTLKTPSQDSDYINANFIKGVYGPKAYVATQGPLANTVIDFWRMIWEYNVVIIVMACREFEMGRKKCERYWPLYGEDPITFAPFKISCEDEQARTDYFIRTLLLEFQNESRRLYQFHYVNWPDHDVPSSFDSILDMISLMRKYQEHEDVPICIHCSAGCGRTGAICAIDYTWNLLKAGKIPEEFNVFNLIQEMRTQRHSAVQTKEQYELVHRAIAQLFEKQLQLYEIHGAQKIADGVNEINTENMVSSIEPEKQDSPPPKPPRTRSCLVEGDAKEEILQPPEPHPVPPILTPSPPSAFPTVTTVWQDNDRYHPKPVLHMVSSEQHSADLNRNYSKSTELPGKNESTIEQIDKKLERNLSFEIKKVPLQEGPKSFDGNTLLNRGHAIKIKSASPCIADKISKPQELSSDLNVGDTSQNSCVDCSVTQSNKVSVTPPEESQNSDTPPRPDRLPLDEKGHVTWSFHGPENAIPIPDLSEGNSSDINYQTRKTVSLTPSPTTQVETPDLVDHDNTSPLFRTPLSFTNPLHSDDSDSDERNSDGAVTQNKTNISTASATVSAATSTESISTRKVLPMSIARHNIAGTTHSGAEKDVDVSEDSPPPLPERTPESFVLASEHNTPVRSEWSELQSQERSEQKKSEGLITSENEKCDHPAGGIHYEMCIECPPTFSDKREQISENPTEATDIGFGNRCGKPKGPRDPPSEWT
# [7] = target: T2, G-protein coupled receptor 35 (Homo sapiens, UniProt Q9HC97); experiment: GPR35 antagonists blocking zaprinast-driven arrestin recruitment, primary screen, imaging, U2OS, beta-arrestin-GFP, zaprinast agonist (AID 2058); type: functional;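 note: antagonist potency meaning inhibition of agonist-induced arrestin redistribution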
# T2 sequence (Q9HC97 whole entry): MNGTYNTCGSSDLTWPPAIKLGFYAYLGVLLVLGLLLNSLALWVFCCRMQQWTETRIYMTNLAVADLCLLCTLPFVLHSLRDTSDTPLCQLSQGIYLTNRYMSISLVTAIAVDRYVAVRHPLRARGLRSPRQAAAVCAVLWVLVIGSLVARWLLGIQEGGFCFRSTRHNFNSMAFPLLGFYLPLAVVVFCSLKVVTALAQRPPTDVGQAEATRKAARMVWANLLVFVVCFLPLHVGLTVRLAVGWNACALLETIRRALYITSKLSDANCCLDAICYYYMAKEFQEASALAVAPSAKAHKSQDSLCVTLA
# [8] = target: T2, G-protein coupled receptor 35; experiment: SAR Analysis for the identification of Selective Antagonists of ERK1/2 Activity in GPR35-Overexpressing U2OS Cells. [Related pubchem assays: 2079, 2058 ]; type: functional, cell-based
# [9] = target: T1, G-protein coupled receptor 55; experiment: GPR55 agonists via beta-arrestin recruitment, primary screen, imaging, U2OS cells, beta-arrestin-GFP redistribution (AID 1961); type: functional
# [10] = target: T3, Tyrosine-protein phosphatase non-receptor type 22 (Homo sapiens, UniProt Q9Y2R2); experiment: SAR LYP1 Fluorescent Assay using OMFP substrate for In Vitro dose response studies - Set 3. [Related pubchem assays (depositor defined):AID1779, AID1784, AID2140, AID2686]; type: functional
# T3 sequence (Q9Y2R2 whole entry): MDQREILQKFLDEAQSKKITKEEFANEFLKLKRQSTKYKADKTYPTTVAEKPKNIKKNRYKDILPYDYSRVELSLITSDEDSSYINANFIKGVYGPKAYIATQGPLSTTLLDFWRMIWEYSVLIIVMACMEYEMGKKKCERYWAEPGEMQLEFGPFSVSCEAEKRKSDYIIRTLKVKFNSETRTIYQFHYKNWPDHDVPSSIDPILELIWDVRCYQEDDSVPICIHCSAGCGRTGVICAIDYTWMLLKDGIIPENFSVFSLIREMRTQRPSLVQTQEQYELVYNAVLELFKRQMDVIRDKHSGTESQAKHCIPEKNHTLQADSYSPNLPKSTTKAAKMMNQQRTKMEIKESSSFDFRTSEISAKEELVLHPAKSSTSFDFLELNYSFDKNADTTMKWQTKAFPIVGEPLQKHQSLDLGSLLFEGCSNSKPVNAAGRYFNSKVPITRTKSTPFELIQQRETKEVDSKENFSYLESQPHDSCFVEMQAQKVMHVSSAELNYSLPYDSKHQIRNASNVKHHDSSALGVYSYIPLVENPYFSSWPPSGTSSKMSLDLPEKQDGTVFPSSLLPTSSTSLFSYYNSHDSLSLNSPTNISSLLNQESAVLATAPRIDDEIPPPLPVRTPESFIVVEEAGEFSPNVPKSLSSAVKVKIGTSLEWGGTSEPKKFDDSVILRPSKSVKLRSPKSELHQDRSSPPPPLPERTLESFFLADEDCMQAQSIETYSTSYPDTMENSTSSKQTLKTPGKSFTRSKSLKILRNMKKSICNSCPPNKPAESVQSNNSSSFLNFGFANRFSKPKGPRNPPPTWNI
# [11] = target: T3, Tyrosine-protein phosphatase non-receptor type 22; experiment: LYP (PTPN22) phosphatase inhibitor potency, SAR follow-up, biochemical, pCAP fluorogenic substrate, fluorescence, set 3 (AID 449727); type: functional
# [12] = target: T4, Tyrosine-protein phosphatase non-receptor type 7 (Homo sapiens, UniProt P35236); experiment: HePTP (PTPN7) phosphatase inhibitor potency, SAR follow-up, biochemical, set 2 (AID 449736); type: functional
# T4 sequence (P35236 whole entry): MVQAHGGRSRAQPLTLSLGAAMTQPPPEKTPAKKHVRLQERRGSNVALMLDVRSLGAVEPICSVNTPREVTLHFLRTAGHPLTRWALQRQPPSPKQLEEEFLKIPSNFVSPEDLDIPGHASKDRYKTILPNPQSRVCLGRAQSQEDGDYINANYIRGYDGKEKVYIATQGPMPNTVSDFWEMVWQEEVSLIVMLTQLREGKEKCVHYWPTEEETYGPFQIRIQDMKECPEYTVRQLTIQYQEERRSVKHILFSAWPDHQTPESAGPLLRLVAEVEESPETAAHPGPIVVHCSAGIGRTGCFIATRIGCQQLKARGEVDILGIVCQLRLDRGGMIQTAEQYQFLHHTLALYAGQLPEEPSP
# CAAX prenyl protease 2 [13] = target: T5, CAAX prenyl protease 2 (Saccharomyces cerevisiae S288c, UniProt Q03530); type: biochemical
# T5 sequence (Q03530 whole entry): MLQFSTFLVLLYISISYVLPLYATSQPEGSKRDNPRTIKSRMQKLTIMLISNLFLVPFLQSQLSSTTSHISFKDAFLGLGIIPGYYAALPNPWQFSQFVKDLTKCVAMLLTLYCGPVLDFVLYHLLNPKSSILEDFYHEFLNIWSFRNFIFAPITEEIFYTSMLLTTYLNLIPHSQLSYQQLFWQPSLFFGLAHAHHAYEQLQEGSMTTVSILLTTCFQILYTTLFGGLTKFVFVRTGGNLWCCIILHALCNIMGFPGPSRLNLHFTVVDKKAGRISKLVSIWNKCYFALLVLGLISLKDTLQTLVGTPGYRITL
# [14] = target: T6, Replicative DNA helicase DnaB (Mycobacterium tuberculosis, UniProt P9WMR3); experiment: DnaB intein splicing inhibitors, dose response, biochemical, cell-free fluorescence (AID 449749); type: functional
# T6 sequence (P9WMR3 whole entry): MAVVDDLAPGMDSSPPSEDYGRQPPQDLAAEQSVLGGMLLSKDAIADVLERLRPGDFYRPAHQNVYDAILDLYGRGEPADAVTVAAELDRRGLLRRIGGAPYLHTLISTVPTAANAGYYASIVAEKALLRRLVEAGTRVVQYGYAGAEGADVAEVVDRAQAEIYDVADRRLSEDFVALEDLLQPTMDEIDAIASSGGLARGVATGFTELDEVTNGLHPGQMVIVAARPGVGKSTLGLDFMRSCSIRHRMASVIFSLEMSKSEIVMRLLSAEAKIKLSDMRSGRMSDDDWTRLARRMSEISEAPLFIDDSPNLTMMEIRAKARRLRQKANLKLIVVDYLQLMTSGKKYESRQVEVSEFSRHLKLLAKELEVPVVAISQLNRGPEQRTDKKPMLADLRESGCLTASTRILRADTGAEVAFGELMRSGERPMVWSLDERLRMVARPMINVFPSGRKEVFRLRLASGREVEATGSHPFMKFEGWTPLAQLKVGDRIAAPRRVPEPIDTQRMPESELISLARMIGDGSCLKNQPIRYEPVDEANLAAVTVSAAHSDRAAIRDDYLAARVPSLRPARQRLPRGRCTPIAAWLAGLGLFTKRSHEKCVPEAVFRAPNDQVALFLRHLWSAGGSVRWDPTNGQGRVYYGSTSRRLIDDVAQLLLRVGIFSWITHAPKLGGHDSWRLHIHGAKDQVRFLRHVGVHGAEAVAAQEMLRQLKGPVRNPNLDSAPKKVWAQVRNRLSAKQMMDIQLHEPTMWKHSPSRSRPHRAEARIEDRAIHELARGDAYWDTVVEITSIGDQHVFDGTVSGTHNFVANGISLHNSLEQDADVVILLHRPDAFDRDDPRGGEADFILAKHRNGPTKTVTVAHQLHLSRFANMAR
# CAAX prenyl protease 1 = CAAX prenyl protease 1 (Saccharomyces cerevisiae S288c, UniProt P47154); experiment: Ste24 protease inhibitors, dose response, biochemical, S. cerevisiae, plate reader, cherry-pick (AID 488815)
# Sequence of CAAX prenyl protease 1 (P47154 whole entry): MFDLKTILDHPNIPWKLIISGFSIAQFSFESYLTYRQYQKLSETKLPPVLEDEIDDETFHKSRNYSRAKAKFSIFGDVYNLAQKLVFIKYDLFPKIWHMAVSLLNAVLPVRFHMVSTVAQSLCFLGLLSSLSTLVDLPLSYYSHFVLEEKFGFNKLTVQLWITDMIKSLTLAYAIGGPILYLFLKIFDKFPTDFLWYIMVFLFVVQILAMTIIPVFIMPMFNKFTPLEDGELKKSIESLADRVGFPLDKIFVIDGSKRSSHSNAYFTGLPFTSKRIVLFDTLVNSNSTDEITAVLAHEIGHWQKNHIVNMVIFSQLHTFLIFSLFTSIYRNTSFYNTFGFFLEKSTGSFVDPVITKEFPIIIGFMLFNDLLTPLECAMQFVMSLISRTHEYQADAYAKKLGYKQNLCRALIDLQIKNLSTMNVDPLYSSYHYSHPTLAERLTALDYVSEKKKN
# Protein RecA = target: T7, Protein RecA (Mycobacterium tuberculosis, UniProt P9WHJ3); experiment: Fluorescence Cell-Free Homogeneous Dose Retest to Identify Inhibitors of RecA-Intein Splicing Activity. [Related pubchem assays (depositor defined):AID2097, AID2223, AID489010, AID492950]; type: functional
# T7 sequence (P9WHJ3 whole entry): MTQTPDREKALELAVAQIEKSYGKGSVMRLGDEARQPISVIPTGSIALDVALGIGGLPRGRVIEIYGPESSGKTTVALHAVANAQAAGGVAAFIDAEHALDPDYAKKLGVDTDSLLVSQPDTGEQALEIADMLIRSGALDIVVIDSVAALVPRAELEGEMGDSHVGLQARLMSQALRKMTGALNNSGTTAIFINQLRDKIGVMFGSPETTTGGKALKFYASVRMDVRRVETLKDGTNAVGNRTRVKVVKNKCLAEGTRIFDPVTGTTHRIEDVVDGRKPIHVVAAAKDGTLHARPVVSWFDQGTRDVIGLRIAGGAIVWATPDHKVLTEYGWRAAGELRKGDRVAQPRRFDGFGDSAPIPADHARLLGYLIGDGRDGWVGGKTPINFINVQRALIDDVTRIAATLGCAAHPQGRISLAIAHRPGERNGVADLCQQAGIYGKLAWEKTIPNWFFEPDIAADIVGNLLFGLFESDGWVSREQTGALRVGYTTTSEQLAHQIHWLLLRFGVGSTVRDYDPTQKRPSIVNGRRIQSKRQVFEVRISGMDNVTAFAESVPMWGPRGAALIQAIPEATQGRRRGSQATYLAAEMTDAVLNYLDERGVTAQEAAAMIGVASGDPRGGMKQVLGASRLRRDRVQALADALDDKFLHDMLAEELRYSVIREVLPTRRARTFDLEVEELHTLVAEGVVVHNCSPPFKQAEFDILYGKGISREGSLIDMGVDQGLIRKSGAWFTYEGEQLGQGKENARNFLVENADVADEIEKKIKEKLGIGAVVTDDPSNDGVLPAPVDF
# CAAX prenyl protease 2 [15] = target: T8, CAAX prenyl protease 2 (Homo sapiens, UniProt Q9Y256); experiment: human Rce1 protease inhibitors, dose response, biochemical, yeast membranes, quenched-peptide fluorescence, cherry-pick (AID 588849)
# T8 sequence (Q9Y256 whole entry): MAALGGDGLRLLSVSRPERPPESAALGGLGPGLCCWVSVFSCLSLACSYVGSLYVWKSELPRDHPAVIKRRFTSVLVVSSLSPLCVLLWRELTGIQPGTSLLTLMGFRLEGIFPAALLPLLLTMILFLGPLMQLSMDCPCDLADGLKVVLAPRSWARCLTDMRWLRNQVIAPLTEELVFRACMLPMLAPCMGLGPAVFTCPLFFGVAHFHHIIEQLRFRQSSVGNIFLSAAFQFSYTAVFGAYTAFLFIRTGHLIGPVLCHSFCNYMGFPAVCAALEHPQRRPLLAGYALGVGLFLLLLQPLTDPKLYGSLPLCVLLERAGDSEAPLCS
# Coagulation factor XII = target: T9, Coagulation factor XII (Homo sapiens, UniProt P00748); experiment: FXIIa inhibitor potency, concentration-response, biochemical (AID 716); type: functional
# T9 sequence (P00748 whole entry): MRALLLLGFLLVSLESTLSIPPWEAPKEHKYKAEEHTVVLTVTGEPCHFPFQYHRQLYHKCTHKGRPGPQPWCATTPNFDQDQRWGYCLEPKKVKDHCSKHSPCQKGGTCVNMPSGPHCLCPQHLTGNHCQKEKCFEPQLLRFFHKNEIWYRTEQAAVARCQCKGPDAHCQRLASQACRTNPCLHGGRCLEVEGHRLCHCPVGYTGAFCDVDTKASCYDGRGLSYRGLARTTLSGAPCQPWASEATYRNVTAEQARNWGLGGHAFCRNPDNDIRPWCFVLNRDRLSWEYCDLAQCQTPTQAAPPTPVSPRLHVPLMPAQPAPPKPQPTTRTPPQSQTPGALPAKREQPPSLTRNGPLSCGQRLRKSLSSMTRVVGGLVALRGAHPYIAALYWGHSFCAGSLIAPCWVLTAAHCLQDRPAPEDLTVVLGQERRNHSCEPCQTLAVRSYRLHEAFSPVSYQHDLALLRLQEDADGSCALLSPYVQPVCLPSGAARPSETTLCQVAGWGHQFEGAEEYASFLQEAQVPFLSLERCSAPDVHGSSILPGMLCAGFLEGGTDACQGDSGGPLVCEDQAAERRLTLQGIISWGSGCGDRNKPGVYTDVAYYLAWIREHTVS
# Trypsin = Trypsin (Sus scrofa, UniProt P00761); experiment: porcine trypsin inhibitors, dose response, selectivity assay for Rce1 protease inhibitor project, biochemical, quenched peptide fluorescence, cherry-pick (AID 488789)
# Sequence of Trypsin (P00761 whole entry): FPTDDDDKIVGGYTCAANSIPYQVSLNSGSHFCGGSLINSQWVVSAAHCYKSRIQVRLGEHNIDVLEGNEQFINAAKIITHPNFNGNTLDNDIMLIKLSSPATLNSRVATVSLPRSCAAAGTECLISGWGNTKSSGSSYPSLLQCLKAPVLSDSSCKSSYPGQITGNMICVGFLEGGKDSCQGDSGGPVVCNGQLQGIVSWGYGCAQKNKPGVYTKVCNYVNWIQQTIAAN
# SUMO E1/E2 = SUMO E1/E2 (Homo sapiens, UniProt P63279+Q9UBE0+Q9UBT2); experiment: SAR analysis of SUMOylation using HTRF in an in-Vitro dose response assay. [Related pubchem assays (depositor defined):AID2006, AID2011, AID2018, AID2069, AID2658]; type: functional
# Sequence of SUMO E1/E2 (Q9UBE0 whole entry): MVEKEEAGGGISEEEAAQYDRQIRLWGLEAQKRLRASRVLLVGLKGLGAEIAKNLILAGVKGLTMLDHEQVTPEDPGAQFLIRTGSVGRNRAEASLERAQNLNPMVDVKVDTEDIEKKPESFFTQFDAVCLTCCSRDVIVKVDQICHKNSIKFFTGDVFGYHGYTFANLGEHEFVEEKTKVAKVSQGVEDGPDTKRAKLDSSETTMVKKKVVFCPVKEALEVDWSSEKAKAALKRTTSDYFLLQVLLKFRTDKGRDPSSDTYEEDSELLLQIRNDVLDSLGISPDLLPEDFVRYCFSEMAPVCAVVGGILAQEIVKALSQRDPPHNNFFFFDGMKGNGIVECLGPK
# Sequence of SUMO E1/E2 (Q9UBT2 whole entry): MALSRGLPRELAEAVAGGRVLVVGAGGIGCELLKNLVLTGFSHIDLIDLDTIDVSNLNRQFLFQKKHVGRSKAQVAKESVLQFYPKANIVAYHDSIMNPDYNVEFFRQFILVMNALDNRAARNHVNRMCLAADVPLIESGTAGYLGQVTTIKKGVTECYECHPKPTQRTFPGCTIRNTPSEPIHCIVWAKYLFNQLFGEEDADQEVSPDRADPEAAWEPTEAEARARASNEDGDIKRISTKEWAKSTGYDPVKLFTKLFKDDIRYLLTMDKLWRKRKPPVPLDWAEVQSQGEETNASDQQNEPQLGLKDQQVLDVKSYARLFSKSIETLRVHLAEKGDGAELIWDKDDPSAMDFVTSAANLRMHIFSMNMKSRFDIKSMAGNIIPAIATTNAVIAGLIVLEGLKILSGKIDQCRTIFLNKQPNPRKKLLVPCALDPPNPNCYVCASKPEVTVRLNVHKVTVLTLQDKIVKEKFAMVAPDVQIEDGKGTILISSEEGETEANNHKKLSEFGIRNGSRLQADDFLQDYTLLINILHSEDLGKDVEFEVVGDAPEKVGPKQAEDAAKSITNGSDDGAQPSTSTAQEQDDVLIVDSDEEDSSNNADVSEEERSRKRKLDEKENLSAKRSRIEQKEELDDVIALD
# Sequence of SUMO E1/E2 (P63279 whole entry): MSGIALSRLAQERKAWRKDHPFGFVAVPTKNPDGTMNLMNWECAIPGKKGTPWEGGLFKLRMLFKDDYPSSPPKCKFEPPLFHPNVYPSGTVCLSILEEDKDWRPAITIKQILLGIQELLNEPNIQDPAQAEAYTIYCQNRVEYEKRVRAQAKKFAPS
smiles,measurement,setting,value
CCOC(=O)c1ccccc1NC(=O)CSc1ccc(-c2ccccn2)nn1,EC50,[1],10.8 µM (active)
same,IC50,H9c2,5.14 µM (active)
same,EC50,[2],11.7 µM (active)
same,EC50,[3],> 120 µM (not active)
same,AC50,[4],62.6 µM (active)
Cc1ccc(/C=C2\SC(=S)N(CCCC(=O)Nc3cccc(C(=O)O)c3)C2=O)cc1,IC50,[5],> 32 µM (inactive)
same,IC50,[6],15.9 µM (active)
same,IC50,[7],< 0.5 µM (active)
same,IC50,[8],1.39 µM (active)
same,EC50,[9],1.45 µM (active)
same,IC50,[10],30.2 µM (active)
same,IC50,[11],39 µM (active)
same,IC50,[12],2.79 µM (active)
CC(C)C(=O)N1CCN(c2nc(-c3ccccc3)c3c(c2C#N)CCCC3)CC1,AC50,CAAX prenyl protease 2 [13],14.4 µM (active)
same,AC50,[14],7.76 µM (active)
same,AC50,CAAX prenyl protease 1,6.09 µM (active)
same,EC50,Protein RecA,38.4 µM (active)
same,AC50,CAAX prenyl protease 2 [15],7.27 µM (active)
same,IC50,Coagulation factor XII,> 50 µM (inactive)
same,AC50,Trypsin,1.74 µM (active)
O=S(=O)(Nc1ccccc1F)c1ccc2c(c1)C1C=CCC1C(c1ccc(F)cc1)N2 (stereo unspecified),IC50,SUMO E1/E2,> 100 µM (inactive)
